These results are taken from patent publication US20090264415A2 (priority 2004, published 2009).

One assay relates to peripheral blood mononuclear cells (PBMC) stimulated with allogeneic PBMC or EBV-transformed human B cells (RPMI1788). The experiment in a line: Mixed lymphocyte reaction (MLR) assay. The format is cell-based. The note with it: 50% suppression of the MLR, [3H]-thymidine incorporation; read-out: MLR. How it is done: Pyrido[3,2-d]pyrimidine derivatives were first dissolved (10 mM) in dimethyl-sulfoxide (hereinafter referred as DMSO) and further diluted in culture medium before use for the following in vitro experiments. […] Some pyrido[3,2-d]pyrimidine derivatives described herein were tested in the following mixed lymphocyte reaction (MLR) assay.
Peripheral blood mononuclear cells (hereinafter referred as PBMC) were isolated from heparinized peripheral blood by density gradient centrifugation over Lymphoprep (Nycomed, Maorstua, Norway). Allogeneic PBMC or Eppstein-Barr Virus-transformed human B cells [commercially available under the trade name RPM11788 (ATCC name CCL156)] which strongly express B7-1 and B7-2 antigens were used as stimulator cells after irradiation with 30 Gy. MLR was performed in triplicate wells. After 5 days incubation at 37° C., 1 μCi [^3H]-thymidine was added to each cup. After a further 16 hours incubation, cells were harvested and counted in a β-counter. Inhibition of proliferation by a compound described in some of the present examples was counted while using the formula: [formula] wherein cpm is the thymidine count per minute. The MLR assay is regarded by those skilled in the art as an in vitro analogue of the transplant rejection since it is based on the recognition of allogeneic major histocompatibility antigens on the stimulator leukocytes, by responding lymphocytes.
(Incorporation of labelled thymidine or its analogues reports DNA synthesis.)
As to `COc1ccc(-c2ccc3nc(N4CCOCC4)nc(N4CCN(C(=O)Nc5cccc(C)c5)CC4)c3n2)cc1OC` [Example 88], the IC50 came out at 400 nM.
Take `COc1ccc(-c2ccc3nc(Cl)nc(N4CCN(C(=O)Nc5cccc(C)c5)CC4)c3n2)cc1OC` [Example 14]: the IC50 was found to be 66 nM.

The same assay, now with this note: Homo sapiens, RPMI-1788; 50% suppression of the MLR, [3H]-thymidine incorporation; read-out: MLR.
As for `Nc1nc(N2CCN(C(=O)c3ccco3)CC2)c2nc(-c3ccc4c(c3)OCO4)ccc2n1` [Example 192, 2-amino-4-[N-(2-furoyl)-piperazin-1-yl]-6-(3,4-methylenedioxyphenyl)-pyrido[3,2-d]pyrimidine], the IC50 was 8100 nM.

The assay is the same for the next values; noted with them: Homo sapiens, RPMI-1788; MLR assay of example 319; read-out: MLR IC50.
In the case of `Cc1cccc(NC(=O)N2CCN(c3ncnc4ccc(-c5cccs5)nc34)CC2)c1` [Example 562, 4-[(3-methylphenylcarbamoyl)-piperazin-1-yl]-6-(2-thienyl)pyrido[3,2-d]pyrimidine], the IC50 turned out to be 53 nM.
Same read-out and setting: for `Nc1nc(N2CCN(C(=O)NC3CCCC3)CC2)c2nc(-c3ccc(F)cc3)ccc2n1` [Example 454, 2-amino-4-[4-(N-cyclopentylcarbamoyl)-piperazin-1-yl]-6-(4-fluorophenyl)-pyrido[3,2-d]pyrimidine] the value was 400 nM.
Same read-out and setting: for `Nc1nc(N2CCN(C(=O)C3CCc4ccccc4O3)CC2)c2nc(-c3ccc(F)cc3)ccc2n1` (stereo not shown) [Example 524, [4-(2-amino-6-(4-fluorophenyl)pyrido[3,2-d]pyrimidin-4-yl)piperazin-1-yl]chroman-2-ylmethanone] the value was 225 nM.
On the same count and under the same terms, for `Cc1cccc(NC(=O)N2CCN(c3nc(N)nc4ccc(-c5ccccc5Cl)nc34)CC2)c1` [Example 549, 2-amino-4-[(3-methylphenylcarbamoyl)-piperazin-1-yl]-6-(2-chlorophenyl)-pyrido[3,2-d]pyrimidine] the value was 80 nM; for `COc1ccc(-c2ccc3nc(N)nc(N4CCN(C(=O)COc5ccc(Cl)cc5)CC4)c3n2)cn1` [Example 410, 2-amino-4-[4-(4-chlorophenoxyacetyl)piperazin-1-yl]-6-(2-methoxypyridin-5-yl)pyrido-[3,2-d]pyrimidine], 9 nM; for `CCOc1ccc(-c2ccc3ncnc(N4CCN(C(=O)Nc5cccc(C)c5)CC4)c3n2)cc1Cl` [Example 560, 4-[(3-methylphenylcarbamoyl)-piperazin-1-yl]-6-(3-chloro-4-ethoxyphenyl)pyrido[3,2-d]pyrimidine], 380 nM.
For the compound `COc1cccc(-c2ccc3nc(N)nc(N4CCN(C(=O)COc5ccc(Cl)cc5)CC4)c3n2)c1` [Example 418, 2-amino-4-[4-(4-chlorophenoxyacetyl)piperazin-1-yl]-6-(3-methoxyphenyl)pyrido-[3,2-d]pyrimidine], the IC50 came to 57 nM.
As for `Nc1nc(N2CCN(C(=O)COc3ccc(Cl)cc3)CC2)c2nc(-c3ccncc3)ccc2n1` [Example 407, 2-amino-4-[4-(4-chlorophenoxyacetyl)piperazin-1-yl]-6-(pyridin-4-yl)pyrido-[3,2-d]pyrimidine], the IC50 was 5 nM.
Consider `CC(=O)Oc1ccc(-c2ccc3nc(N)nc(N4CCN(C(=O)COc5ccc(Cl)cc5)CC4)c3n2)cc1` [Example 504, 2-amino-4-[N-(4-chlorophenoxyacetyl)-piperazin-1-yl]-6-(4-acetoxy-phenyl)-pyrido(3,2-d)pyrimidine], for which the IC50 was determined as 50 nM.
Still for that read-out and setting: for `Cc1cccc(NC(=O)N2CCN(c3ncnc4ccc(-c5ccc(F)c(C)c5)nc34)CC2)c1` [Example 555, 4-[(3-methylphenylcarbamoyl)-piperazin-1-yl]-6-(3-methyl-4-fluoro-phenyl)pyrido[3,2-d]pyrimidine] the value was 300 nM; for `COCc1cccc(-c2ccc3nc(N)nc(N4CCN(C(=O)COc5ccc(Cl)cc5)CC4)c3n2)c1` [Example 500, 2-amino-4-[N-(4-chlorophenoxyacetyl)-piperazin-1-yl]-6-(3-methoxy-methylphenyl)-pyrido(3,2-d)pyrimidine], 31 nM.
Still for that read-out and setting: for `Cc1cccc(NC(=O)N2CCN(c3nc(NC4CCCC4)nc4ccc(-c5ccc(F)cc5)nc34)CC2)c1` [Example 571, 2-cyclopentylamino-6-(4-fluorophenyl)-4-[(3-methylphenylcarbamoyl)-piperazin-1-yl]-pyrido[3,2-d]pyrimidine] the value was 500 nM; for `Nc1nc(N2CCN(C(=O)Oc3ccc(Cl)cc3)CC2)c2nc(-c3ccc(F)cc3)ccc2n1` [Example 469, 2-amino-4-[4-(4-chlorophenoxycarbonyl)piperazin-1-yl]-6-(4-fluorophenyl)-pyrido[3,2-d]pyrimidine], 500 nM; for `Nc1nc(N2CCN(C(=O)COc3ccc(Cl)cc3)CC2)c2nc(-c3c(F)cccc3F)ccc2n1` [Example 428, 2-amino-4-[4-(4-chlorophenoxyacetyl)piperazin-1-yl]-6-(2,6-difluorophenyl)pyrido-[3,2-d]pyrimidine], 300 nM.
`Nc1nc(N2CCN(CC(=O)NCCc3ccccc3)CC2)c2nc(-c3ccc(F)cc3)ccc2n1` [Example 459, 2-amino-4-[4-[2-(phenyl)ethylcarbamylmethyl]-piperazin-1-yl]-6-(4-fluorophenyl)-pyrido[3,2-f]pyrimidine]: the IC50 was found to be 500 nM.
Consider `Cc1cccc(NC(=O)N2CCN(c3nc(C)nc4ccc(-c5ccc(F)cc5)nc34)CC2)c1` [Example 531, 2-methyl-4-[N-(3-methylphenylcarbamoyl)piperazin-1-yl]-6-(4-fluorophenyl)-pyrido[3,2-d]pyrimidine], for which the IC50 turned out to be 84 nM.
Still for that read-out and setting: for `N#CCc1ccc(-c2ccc3nc(N)nc(N4CCN(C(=O)COc5ccc(Cl)cc5)CC4)c3n2)cc1` [Example 499, 2-amino-4-[N-(4-chlorophenoxyacetyl)-piperazin-1-yl]-6-(4-cyanomethyl-phenyl)-pyrido(3,2-d)pyrimidine] the value was 11 nM.
Same read-out and setting: for `Nc1nc(N2CCN(C(=O)COc3ccc(Cl)cc3)CC2)c2nc(-c3ccc4c(c3)CCO4)ccc2n1` [Example 497, 2-amino-4-[N-(4-chlorophenoxyacetyl)-piperazin-1-yl]-6-(2,3-dihydro-1-benzofuran-5-yl)-pyrido(3,2-d)pyrimidine] the value was 210 nM; for `Nc1nc(N2CCN(C(=O)NC34CC5CC(CC(C5)C3)C4)CC2)c2nc(-c3ccc(F)cc3)ccc2n1` [Example 453, 2-amino-4-{4-[N-(1-adamantylcarbamoyl)]-piperazin-1-yl}-6-(4-fluorophenyl)-pyrido[3,2-d]pyrimidine], 4000 nM.
Still for that read-out and setting: for `Cc1cccc(NC(=O)N2CCN(c3nc(N)nc4ccc(-c5ccncc5)nc34)CC2)c1` [Example 542, 2-amino-4-[(3-methylphenylcarbamoyl)-piperazin-1-yl]-6-(4-pyridyl)-pyrido[3,2-d]pyrimidine] the value was 5 nM; for `Nc1nc(N2CCN(C(=O)CC(=O)Nc3ccc(Cl)cc3)CC2)c2nc(-c3ccc(F)cc3)ccc2n1` [Example 490, 2-amino-4-[4-(4-chlorophenylcarbamoyl-acetyl)piperazin-1-yl]-6-(4-fluorophenyl)-pyrido[3,2-d]pyrimidine], 340 nM; for `O=C(COc1ccc(Cl)cc1)N1CCN(c2nc(NC3CCCC3)nc3ccc(-c4ccc(F)cc4)nc23)CC1` [Example 573, 2-cyclopentylamino-6-(4-fluorophenyl)-4-[N-(4-chlorophenoxyacetyl)-piperazin-1-yl]-pyrido[3,2-d]pyrimidine], 8000 nM.
Turning to `Cc1cccc(NC(=O)N2CCC(Nc3nc(N)nc4ccc(-c5ccc(F)cc5)nc34)C2)c1` [Example 580, 2-amino-4-[1-(3-methylphenylcarbamoyl)-(S)-amino-pyrrolidin-3-yl]-6-(4-fluorophenyl)-pyrido(3,2-d)pyrimidine], the IC50 was found to be 300 nM.
`Nc1nc(N2CCN(C(=O)CNC(=O)c3ccccc3)CC2)c2nc(-c3ccc(F)cc3)ccc2n1` [Example 478, N-(2-{4-[2-amino-6-(4-fluorophenyl)-pyrido[3,2-d]pyrimidin-4-yl]-piperazin-1-yl}-2-oxoethyl)benzamide]: the IC50 is 5 nM.
The same measure, in the same setting: for `COc1ccc(-c2ccc3nc(N)nc(N4CCN(C(=O)CC(C)(C)C)CC4)c3n2)cc1OC` [Example 392, 2-amino-4-[4-(3,3-dimethylbutyryl)piperazin-1-yl]-6-(3,4-dimethoxyphenyl)-pyrido[3,2-d]pyrimidine] the value was 300 nM.
On the same count and under the same terms, for `CNC(=O)c1ccc(-c2ccc3nc(N)nc(N4CCN(C(=O)COc5ccc(Cl)cc5)CC4)c3n2)cc1` [Example 443, 2-amino-4-[4-(4-chlorophenoxyacetyl)piperazin-1-yl]-6-[4-(methylaminocarbonyl)phenyl]-pyrido-[3,2-d]pyrimidine] the value was 7 nM.
On the same count and under the same terms, for `Cc1noc(C)c1-c1ccc2nc(N)nc(N3CCN(C(=O)COc4ccc(Cl)cc4)CC3)c2n1` [Example 411, 2-amino-4-[4-(4-chlorophenoxyacetyl)piperazin-1-yl]-6-(3,5-dimethylisoxazol-4-yl)pyrido-[3,2-d]pyrimidine] the value was 34 nM; for `COc1ccccc1-c1ccc2nc(N)nc(N3CCN(C(=O)COc4ccc(Cl)cc4)CC3)c2n1` [Example 422, 2-amino-4-[4-(4-chlorophenoxyacetyl)piperazin-1-yl]-6-(2-methoxyphenyl)pyrido-[3,2-d]pyrimidine], 100 nM.
